Results from patent US20080063628A1, “METHODS TO PROMOTE CELL DIFFERENTIATION” (priority 2006, published 2008).

Experiments:
[1] = tested on: PHA treated PBMCs containing activated T-lymphocytes; experiment: Trichostatin A treatment of PBMCs, gene expression by RT-PCR (Example 20); type: cell-based, human; conditions: 5 μM
Text: Human peripheral blood mononuclear cells (PBMCs) were isolated from whole blood using Histopaque (Sigma) gradients and standard density centrifugation. PBMCs are a heterogeneous mixture of lymphoid cells including quiescent T-lymphocytes. Cells were washed thoroughly, counted, and resuspended at 1-2×10^6 cells per ml in culture medium containing RPMI-1640 and 10% FCS. Phytohemagglutinin (PHA; Sigma) is a mitogenic lectin that specifically induces T-lymphocyte activation and proliferation. PHA was added to the cell suspension at a final concentration of 10 μg/ml, and PBMCs were cultured for 3 days at 37° C. with 5% CO2. […] At the end of culture, PBMCs were pooled to harvest, washed thoroughly, and resuspended in fresh culture medium with 5 μM trichostatin A diluted in DMSO. A control culture of PHA-treated PBMCs received an equivalent dilution of DMSO alone. Cells were returned to culture for an additional 24 or 48 hours. Alternatively, resting PBMCs were isolated in a similar manner and cultured for 24 or 48 hours total incubation time with either 5 μM trichostatin A or DMSO alone. At the conclusion of culture, cells were harvested and washed with PBS prior to preparation of RNA in RLT lysis buffer with β-mercaptoethanol (Qiagen). RNA was purified using the RNeasy Mini Kit (Qiagen); RNA quantity and quality were determined using a spectrophotometer. CDNA was made using the iScript CDNA synthesis kit (BioRad). Samples of 20 ng CDNA were used in each RT-PCR reaction, performed on the Applied Biosystems 7500. Results were normalized against GAPDH expression levels with data analysis performed using the accompanying software.

[2] = tested on: amniotic fluid-derived cell line; experiment: Two sequential high dose trichostatin A treatments (24 h each), gene expression by RT-PCR (Example 8); type: cell-based, human; conditions: for Gata1 gene expression / HNF-3 beta gene expression / Insulin gene expression / Pdx-1 gene expression / sox17 gene expression: 1.25 μM 0-24 h + 96-120 h
Description: Several cell lines obtained from different amniotic fluid specimens (see Example 14) and pancreas donors (see Example 13) were tested with similar results. Two lines at similar passage number but derived from different amniotic fluid specimens are shown in Table VIII-A and Table VIII-B for this example. One of these cell lines was also used in examples 2 and 4 above. In addition, this example also contains comparison data in Table VIII-C and Table VIII-D for a single pancreatic-derived stromal line grown to early and late passage number.
Amniotic fluid derived cells or pancreatic-derived stromal cells were seeded into 24-well tissue culture plates at a density of 5000/cm^2 and cultured in AMNIOMAX (Invitrogen) or DMEM with 10% FBS respectively under standard cell culture conditions until confluent. After the cells reached confluency, amniotic fluid derived cells were treated at time 0 hours with a dose of 1.25 μM trichostatin A, and pancreatic-derived stromal cells were treated with a dose of 5.0 μM trichostatin A solubilized in DMSO and medium. At time 24 hours, cell cultures underwent a complete medium change to remove all traces of trichostatin A. At time 96 hours, cell cultures were re-fed with fresh medium and received a second dose of trichostatin A at the same concentration as used previously. At time 120 hours, cell cultures again underwent a complete medium change and were cultured for an additional 24 hours or […] total incubation time.
Samples were taken daily for RT-PCR at the times indicated in Table VIII-A to D. The culture media was removed, and samples were rinsed in PBS then collected in RLT with β-mercaptoethanol (Qiagen). RNA was purified using the RNeasy Mini Kit (Qiagen) and RNA quantity and quality were determined using a spectrophotometer. cDNA was made using the iScript cDNA synthesis kit (BioRad).
Samples of 20 ng cDNA were used in each reaction to determine the expression levels of the following genes in amniotic fluid-derived cells: Gata1, HNF-3 beta, Pdx-1, insulin, and Sox17. Similarly, samples of 20 ng cDNA were used in each reaction to determine the expression level of the following genes in pancreatic-derived cells: glucagon, HNF-3 beta, insulin and Pdx-1. Real-Time PCR was performed on the Applied Biosystems 7500, and data was analyzed using the accompanying software according to the methods described in Example 15.
Real-time PCR amplifcation and quantitative analysis. Unless otherwise stated, all reagents were purchased from Applied Biosystems. Real-time PCR reactions were performed using the ABI PRISM™ 7500 Sequence Detection System. TAQMAN™ FAST UNIVERSAL PCR MASTER MIX™ (ABI, CA) was used with 20 ng of reverse transcribed RNA in a total reaction volume of 20 μl. Each cDNA sample was run in duplicate to allow correction of pipetting errors. Primers and FAM-labeled TAQMAN™ probes were used at concentrations of 200 nM. The level of expression for each target gene was normalized using the pre-developed Applied Biosystem's human glyceraldehyde-3-phosphate dehydrogenase (GAPDH) endogenous control kit. Primers and probes were designed using either ABI PRISM PRIMER EXPRESS™ software or a pre-developed ABI gene analysis kit. For each gene, either one of the primers or the probe were designed to be exon-boundary spanning. This eliminated the possibility of the primers/probe binding to any genomic DNA present. The primer and probe sets are listed as follows: Pdx-1 (Hs00426216), Insulin (Hs00355773), glucagon (Hs00174967), and FoxA2 (HNF 3-beta) (Hs00232764). The remaining primers were designed using the PRIMERS program (ABI, CA). After an initial 95° C. incubation for 20 sec, samples were cycled 40 times in two stages: a denaturation step at 95° C. for 3 sec, followed by an annealing/extension step at 60° C. for 30 sec. […]

[3] = 24 hrs, after 3 days PHA 10 μg/ml
[4] = 48 hours, after 3 days PHA 10 μg/ml

For `CC(/C=C/C(=O)NO)=C\[C@@H](C)C(=O)c1ccc(N(C)C)cc1` [trichostatin A], the HNF-3 beta expression ([1]; 24 or 48 hours) was “negative”, the Sox17 expression ([1]; 24 or 48 hours) was “negative” and the glucagon expression ([1]; 24 or 48 hours) was “negative”. The insulin expression ([1]; 24 or 48 hours) was “negative”, the somatostatin expression ([1]; 24 or 48 hours) was “negative” and the GAPDH gene expression [1, 3] was “+++ (detectable at less than 35 cycles by RT-PCR with SE less than 0.9)”. For the same compound, the GATA4 gene expression [1, 3] was “+++ (detectable at less than 35 cycles by RT-PCR with SE less than 0.9)”, the Gata1 gene expression [1, 3] was “nd (not detectable at >40 cycles by RT-PCR)” and the Pdx-1 gene expression [1, 3] was “+ (detectable at greater than 35–40 cycles by RT-PCR)”. For the same compound, the GATA4 gene expression [1, 4] was “+++ (detectable at less than 35 cycles by RT-PCR with SE less than 0.9)”, the Gata1 gene expression [1, 4] was “nd (not detectable at >40 cycles by RT-PCR)” and the Pdx-1 gene expression [1, 4] was “+ (detectable at greater than 35–40 cycles by RT-PCR)”. The Gata1 gene expression ([2]; 24 hrs) was “+ (detectable between 35 and 40 cycles by RT-PCR)”, the “HNF-3 beta gene expression” value ([2]; 24 hrs) was “+++ (detectable at less than 35 cycles by RT-PCR with SE less than 0.9)” and the Insulin gene expression ([2]; 24 hrs) was “nd (not detectable at >40 cycles by RT-PCR)”. The Pdx-1 gene expression ([2]; 24 hrs) was “+++ (detectable at less than 35 cycles by RT-PCR with SE less than 0.9)”, the sox17 gene expression ([2]; 24 hrs) was “+++ (detectable at less than 35 cycles by RT-PCR with SE less than 0.9)” and the Gata1 gene expression ([2]; 48 hrs) was “nd (not detectable at >40 cycles by RT-PCR)”. For the same compound, the “HNF-3 beta gene expression” value ([2]; 48 hrs) was “+++ (detectable at less than 35 cycles by RT-PCR with SE less than 0.9)”, the Insulin gene expression ([2]; 48 hrs) was “nd (not detectable at >40 cycles by RT-PCR)” and the Pdx-1 gene expression ([2]; 48 hrs) was “nd (not detectable at >40 cycles by RT-PCR)”. For the same compound, the sox17 gene expression ([2]; 48 hrs) was “+++ (detectable at less than 35 cycles by RT-PCR with SE less than 0.9)”, the Gata1 gene expression ([2]; 72 hrs) was “nd (not detectable at >40 cycles by RT-PCR)” and the “HNF-3 beta gene expression” value ([2]; 72 hrs) was “+ (detectable between 35 and 40 cycles by RT-PCR)”. For the same compound, the Insulin gene expression ([2]; 72 hrs) was “+ (detectable between 35 and 40 cycles by RT-PCR)”, the Pdx-1 gene expression ([2]; 72 hrs) was “nd (not detectable at >40 cycles by RT-PCR)” and the sox17 gene expression ([2]; 72 hrs) was “+++ (detectable at less than 35 cycles by RT-PCR with SE less than 0.9)”. The Gata1 gene expression ([2]; 96 hrs) was “nd (not detectable at >40 cycles by RT-PCR)”, the “HNF-3 beta gene expression” value ([2]; 96 hrs) was “+ (detectable between 35 and 40 cycles by RT-PCR)” and the Insulin gene expression ([2]; 96 hrs) was “+ (detectable between 35 and 40 cycles by RT-PCR)”. For the same compound, the Pdx-1 gene expression ([2]; 96 hrs) was “nd (not detectable at >40 cycles by RT-PCR)”, the sox17 gene expression ([2]; 96 hrs) was “+++ (detectable at less than 35 cycles by RT-PCR with SE less than 0.9)” and the Gata1 gene expression ([2]; 120 hrs) was “nd (not detectable at >40 cycles by RT-PCR)”. The “HNF-3 beta gene expression” value ([2]; 120 hrs) was “+++ (detectable at less than 35 cycles by RT-PCR with SE less than 0.9)”, the Insulin gene expression ([2]; 120 hrs) was “nd (not detectable at >40 cycles by RT-PCR)” and the Pdx-1 gene expression ([2]; 120 hrs) was “+++ (detectable at less than 35 cycles by RT-PCR with SE less than 0.9)”. For the same compound, the sox17 gene expression ([2]; 120 hrs) was “+++ (detectable at less than 35 cycles by RT-PCR with SE less than 0.9)”, the Gata1 gene expression ([2]; 144 hrs) was “nd (not detectable at >40 cycles by RT-PCR)” and the “HNF-3 beta gene expression” value ([2]; 144 hrs) was “+++ (detectable at less than 35 cycles by RT-PCR with SE less than 0.9)”. The Insulin gene expression ([2]; 144 hrs) was “nd (not detectable at >40 cycles by RT-PCR)”, the Pdx-1 gene expression ([2]; 144 hrs) was “nd (not detectable at >40 cycles by RT-PCR)” and the sox17 gene expression ([2]; 144 hrs) was “+++ (detectable at less than 35 cycles by RT-PCR with SE less than 0.9)”. For the same compound, the “Gata-1 RT-PCR detection cycle” value ([2]; 1.25 μM, following the first addition) was 37 cycles, the “Insulin RT-PCR detection cycle” value ([2]; 1.25 μM, following the media change) was 36 cycles and the “HNF-3 beta RT-PCR detection cycle” value ([2]; 1.25 μM, initial treatment) was 32 cycles. For the same compound, the “Pdx-1 RT-PCR detection cycle” value ([2]; 1.25 μM, initial treatment (37 before treatment)) was 32 cycles, the “HNF-3 beta RT-PCR detection cycle” value ([2]; 1.25 μM, second treatment) was 32 cycles and the “Pdx-1 RT-PCR detection cycle” value ([2]; 1.25 μM, second treatment) was 34 cycles.
